Experimental data reported in patent publication US20240425523A1, “Compounds for the Degradation of EGFR Kinase” (Beigene Switzerland GMBH, priority 2023, published 2024).

Columns and labels:
Assay type in all cases: cell-based
[1] = molecular target: T1, EGFR L858R (BaF3-L858R cells) (Homo sapiens, UniProt P00533, L858R); experiment: Cell degradation of EGFR, HTRF assay, BaF3-L858R cells; settings: 16 h treatment; for DC50: EGFR degradation; for Dmax: maximum percentage of degradation
T1 construct: host or cells: BaF3
Method in brief: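 BaF3-L858R cells treated 16 h at 37° C, 5% CO2 with compound (top 10 uM final, 5-fold, 8 doses, 0.1% DMSO). DC50 from four-parameter fit; Dmax is maximum percent degradation.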

[2] = molecular target: T2, EGFR-L858R/C797S (H1975-clone #8 cells) (Homo sapiens, UniProt P00533, C797S/L858R); experiment: Cell degradation of EGFR, HTRF assay, H1975-clone#8 (L858R/C797S) cells; settings: 16 h treatment; for DC50: EGFR degradation; for Dmax: maximum percentage of degradation
T2 construct: expressed in transfected cells; host or cells: H1975 (endogenous EGFR knocked out, clone #8)

[3] = molecular target: T3, p-EGFR L858R (BaF3-L858R cells) (Homo sapiens, UniProt P00533, L858R); experiment: Cell p-EGFR inhibition assay, HTRF, BaF3-L858R cells; settings: 16 h treatment; for Imax (%): maximum percentage of pEGFR inhibition; for IC50: pEGFR inhibition
T3 construct: host or cells: BaF3
Method in brief: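 BaF3-L858R cells treated 16 h at 37 °C, 5% CO2 with compound from 10 uM top, 5-fold dilutions, 8 doses, in 0.1% DMSO medium. Lysates read overnight by HTRF p-EGFR antibodies; IC50 fitted to four-parameter curve against DMSO high control.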

[4] = molecular target: p-EGFR Del19/C797S (H1975-clone #23 cells) (Homo sapiens, UniProt P00533); experiment: Cell p-EGFR inhibition assay, HTRF, H1975-clone#23 (DEL19/C797S) cells; settings: 16 h treatment; for Imax (%): maximum percentage of pEGFR inhibition; for IC50: pEGFR inhibition
Method in brief: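 Phospho-EGFR read by overnight HTRF on lysates, normalized to DMSO-treated high control; IC50, Hill slope and Imax fitted. Compounds were applied for 16 h (10 uM top, 5-fold steps, 8 doses) to an H1975 single clone carrying only exogenous Del19/C797S EGFR after sgRNA knockout of endogenous copies.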

SMILES: Cc1cc2cc(n1)-c1c(C)nn(C)c1OC[C@H]1CC[C@H](C1)CN1/C(=N/C2=O)Nc2ccc(N3CCC(N(C)C4CN(c5cc(F)c([C@H]6CCC(=O)NC6=O)c(F)c5)C4)CC3)cc21 [Example 142, (R)-3-(2,6-difluoro-4-(3-(methyl(1-((7^1R,7^3S,E)-1^1,1^3,2^6-trimethyl-3-oxo-5^2,5^3-dihydro-1^1H,5^1H-9-oxa-4-aza-5(2,1)-benzo[d]imidazola-2(2,4)-pyridina-1(4,5)-pyrazola-7(1,3)-cyclopentanacyclononaphane-5^6-yl)piperidin-4-yl)amino)azetidin-1-yl)phenyl)piperidine-2,6-dione]
- DC50 [1]: 7.26 nM
- Dmax [1]: 80.3%
- DC50 [2]: 0.748 nM
- Dmax [2]: 87.3%
- Imax (%) [3]: 97.8%
- IC50 [3]: 4.77 nM
- Imax (%) [4]: 102.03%
- IC50 [4]: 1.42 nM

SMILES: Cc1cc2cc(n1)-c1c(C)nn(C)c1OC[C@H]1CC[C@H](C1)CN1/C(=N/C2=O)Nc2ccc(N(C)C3CCN(C4CCN(c5cc(F)c([C@H]6CCC(=O)NC6=O)c(F)c5)CC4)CC3)cc21 [Example 143, (R)-3-(2,6-difluoro-4-(4-(methyl((7^1R,7^3S,E)-1^1,1^3,2^6-trimethyl-3-oxo-5^2,5^3-dihydro-1^1H,5^1H-9-oxa-4-aza-5(2,1)-benzo[d]imidazola-2(2,4)-pyridina-1(4,5)-pyrazola-7(1,3)-cyclopentanacyclononaphane-5^6-yl)amino)-[1,4′-bipiperidin]-1-yl)phenyl)piperidine-2,6-dione]
- DC50 [1]: 5.23 nM
- Dmax [1]: 74.3%
- DC50 [2]: 1.51 nM
- Dmax [2]: 82%
- Imax (%) [3]: 98.2%
- IC50 [3]: 7.8 nM
- Imax (%) [4]: 101.28%
- IC50 [4]: 1.15 nM

SMILES: Cc1cc2cc(n1)-c1c(C)nn(C)c1OC[C@H]1CC[C@H](C1)CN1/C(=N/C2=O)Nc2ccc(N3CCN([C@@H]4CCN(c5ccc(OC6CCC(=O)NC6=O)cc5)C[C@@H]4F)CC3)cc21 (stereo partly drawn) [Example 144, 3-(4-((3S,4R)-3-fluoro-4-(4-((7^1R,7^3S,E)-1^1,1^3,2^6-trimethyl-3-oxo-5^2,5^3-dihydro-1^1H,5^1H-9-oxa-4-aza-5(2,1)-benzo[d]imidazola-2(2,4)-pyridina-1(4,5)-pyrazola-7(1,3)-cyclopentanacyclononaphane-5^6-yl)piperazin-1-yl)piperidin-1-yl)phenoxy)piperidine-2,6-dione]
- DC50 [1]: 3.1 nM
- Dmax [1]: 73.6%
- DC50 [2]: 0.938 nM
- Dmax [2]: 84.8%
- Imax (%) [3]: 98.7%
- IC50 [3]: 5.5 nM
- Imax (%) [4]: 100.78%
- IC50 [4]: 0.97 nM

SMILES: COC[C@H]1CN(c2ccc3c(c2)N2C[C@H]4CC[C@@H](COc5c(c(C)nn5C)-c5cc(cc(C)n5)C(=O)/N=C/2N3)C4)CCN1C1CCN(c2cc(F)c([C@H]3CCC(=O)NC3=O)c(F)c2)CC1 [Example 150, (R)-3-(2,6-difluoro-4-(4-((R)-2-(methoxymethyl)-4-((7S,7^3R,E)-1^1,1^3,2^6-trimethyl-3-oxo-5^2,5^3-dihydro-1^1H,5^1H-9-oxa-4-aza-5(2,1)-benzo[d]imidazola-2(2,4)-pyridina-1(4,5)-pyrazola-7(1,3)-cyclopentanacyclononaphane-5^6-yl)piperazin-1-yl)piperidin-1-yl)phenyl)piperidine-2,6-dione]
- DC50 [1]: 8.77 nM
- Dmax [1]: 90.5%
- DC50 [2]: 7.29 nM
- Dmax [2]: 85%
- Imax (%) [3]: 91.27%
- IC50 [3]: 72.1 nM
- Imax (%) [4]: 100.12%
- IC50 [4]: 2.16 nM

SMILES: COC[C@@H]1CN(c2cc3c(cc2OC)N/C2=N\C(=O)c4cc(C)nc(c4)-c4c(C)nn(C)c4OC[C@H]4CC[C@H](C4)CN23)CCN1C1CCN(c2cc(F)c([C@H]3CCC(=O)NC3=O)c(F)c2)CC1 [Example 151, (R)-3-(2,6-difluoro-4-(4-((S)-4-((7^1R,7^3S,E)-5^5-methoxy-1^1,1^3,2^6-trimethyl-3-oxo-5^2,5^3-dihydro-1^1H,5^1H-9-oxa-4-aza-5(2,1)-benzo[d]imidazola-2(2,4)-pyridina-1(4,5)-pyrazola-7(1,3)-cyclopentanacyclononaphane-5^6-yl)-2-(methoxymethyl)piperazin-1-yl)piperidin-1-yl)phenyl)piperidine-2,6-dione]
- DC50 [1]: 1.68 nM
- Dmax [1]: 90.6%
- DC50 [2]: 2.62 nM
- Dmax [2]: 88.5%
- Imax (%) [3]: 95.95%
- IC50 [3]: 5.03 nM
- Imax (%) [4]: 99.54%
- IC50 [4]: 1.02 nM

SMILES: COc1cc2c(cc1N1CCN(C3CCN(c4cc(F)c([C@H]5CCC(=O)NC5=O)c(F)c4)CC3)CC1)N1C[C@@H]3CC[C@H](COc4c(c(C)nn4C)-c4cc(cc(C)n4)C(=O)/N=C/1N2)C3 [Example 152, (R)-3-(2,6-difluoro-4-(4-(4-((7^1R,7^3S,E)-5^5-methoxy-1^1,1^3,2^6-trimethyl-3-oxo-5^2,5^3-dihydro-1^1H,5^1H-9-oxa-4-aza-5(2,1)-benzo[d]imidazola-2(2,4)-pyridina-1(4,5)-pyrazola-7(1,3)-cyclopentanacyclononaphane-5^6-yl)piperazin-1-yl)piperidin-1-yl)phenyl)piperidine-2,6-dione]
- DC50 [1]: 1.19 nM
- Dmax [1]: 86.6%
- DC50 [2]: 1.28 nM
- Dmax [2]: 88.7%
- Imax (%) [3]: 95.61%
- IC50 [3]: 15 nM
- Imax (%) [4]: 100.06%
- IC50 [4]: 2.46 nM

SMILES: Cc1cc2cc(n1)-c1c(C)nn(C)c1OC[C@H]1CC[C@H](C1)CN1/C(=N/C2=O)Nc2ccc(N3CC(N(C)C4CCN(c5cc(F)c([C@H]6CCC(=O)NC6=O)c(F)c5)CC4)C3)cc21 [Example 153, (R)-3-(2,6-difluoro-4-(4-(methyl(1-((7^1R,7^3S,E)-1^1,1^3,2^6-trimethyl-3-oxo-5^2,5^3-dihydro-1^1H,5^1H-9-oxa-4-aza-5(2,1)-benzo[d]imidazola-2(2,4)-pyridina-1(4,5)-pyrazola-7(1,3)-cyclopentanacyclononaphane-5^6-yl)azetidin-3-yl)amino)piperidin-1-yl)phenyl)piperidine-2,6-dione]
- DC50 [1]: 2.8 nM
- Dmax [1]: 84.4%
- DC50 [2]: 2.92 nM
- Dmax [2]: 87%
- Imax (%) [3]: 97.42%
- IC50 [3]: 11.1 nM
- Imax (%) [4]: 100.23%
- IC50 [4]: 1.56 nM

SMILES: COC[C@H]1CN(c2ccc3c(c2)N2C[C@@H]4CC[C@H](COc5c(c(C)nn5CCO)-c5cc(cc(C)n5)C(=O)/N=C/2N3)C4)CCN1C1CCN(c2cc(F)c([C@H]3CCC(=O)NC3=O)c(F)c2)CC1 [Example 156, (R)-3-(2,6-difluoro-4-(4-((R)-4-((7^1R,7^3S,E)-1^1-(2-hydroxyethyl)-1^3,2^6-dimethyl-3-oxo-5^2,5^3-dihydro-1^1H,5^1H-9-oxa-4-aza-5(2,1)-benzo[d]imidazola-2(2,4)-pyridina-1(4,5)-pyrazola-7(1,3)-cyclopentanacyclononaphane-5^6-yl)-2-(methoxymethyl)piperazin-1-yl)piperidin-1-yl)phenyl)piperidine-2,6-dione]
- DC50 [1]: 2.11 nM
- Dmax [1]: 87.4%
- DC50 [2]: 2.73 nM
- Dmax [2]: 88%
- Imax (%) [3]: 95.16%
- IC50 [3]: 4.81 nM
- Imax (%) [4]: 100.92%
- IC50 [4]: 0.789 nM

SMILES: COC[C@@H]1CN(c2ccc3c(c2)N2C[C@@H]4CC[C@H](COc5c(c(C)nn5CCO)-c5cc(cc(C)n5)C(=O)/N=C/2N3)C4)CCN1C1CCN(c2cc(F)c([C@H]3CCC(=O)NC3=O)c(F)c2)CC1 [Example 157, (R)-3-(2,6-difluoro-4-(4-((S)-4-((7^1R,7^3S,E)-1^1-(2-hydroxyethyl)-1^3,2^6-dimethyl-3-oxo-5^2,5^3-dihydro-1^1H,5^1H-9-oxa-4-aza-5(2,1)-benzo[d]imidazola-2(2,4)-pyridina-1(4,5)-pyrazola-7(1,3)-cyclopentanacyclononaphane-5^6-yl)-2-(methoxymethyl)piperazin-1-yl)piperidin-1-yl)phenyl)piperidine-2,6-dione]
- DC50 [1]: 2.03 nM
- Dmax [1]: 85.8%
- DC50 [2]: 1.88 nM
- Dmax [2]: 88%
- Imax (%) [3]: 96.89%
- IC50 [3]: 2.87 nM
- Imax (%) [4]: 100.52%
- IC50 [4]: 1.1 nM

SMILES: Cc1cc2cc(n1)-c1c(C)nn(C)c1OC[C@H]1CC[C@H](C1)CN1/C(=N/C2=O)Nc2ccc(N3CCC(NC4CN(c5c(F)cc(OC6CCC(=O)NC6=O)cc5F)C4)CC3)cc21 (some centres unmarked) [Example 158, 3-(3,5-difluoro-4-(3-((1-((7^1R,7^3S,E)-1^1,1^3,2^6-trimethyl-3-oxo-5^2,5^3-dihydro-1^1H,5^1H-9-oxa-4-aza-5(2,1)-benzo[d]imidazola-2(2,4)-pyridina-1(4,5)-pyrazola-7(1,3)-cyclopentanacyclononaphane-5^6-yl)piperidin-4-yl)amino)azetidin-1-yl)phenoxy)piperidine-2,6-dione]
- DC50 [1]: 3.75 nM
- Dmax [1]: 79.8%
- DC50 [2]: 4.39 nM
- Dmax [2]: 77.3%
- Imax (%) [3]: 95.45%
- IC50 [3]: 72.6 nM
- Imax (%) [4]: 100.46%
- IC50 [4]: 3.65 nM
